Key:
[1] = system: BaF3 TELJAK cells (BafT_J2); experiment: Cellular screening, BaF3 TELJAK2 cells (Alamar Blue); format: cell-based; settings: Mus musculus, BaF3; 48-72 hr incubation; read-out: BafT_J2_IC50_μM
Protocol: (§1) For screening purposes, compounds were diluted in 96 well plates at a concentration of 20 μM. Plates were warmed at 37° C. for 30 minutes before the assay was performed.
A TEL/Jak2 fusion was generated by digestion of the TELPCR product with BamH I/Sal I restriction enzymes, digestion of the JAK2 PCR product with Sal I/Not I restriction enzymes, followed by ligation and subcloning of the ligation product into the mammalian expression Vector pTRE 2 (Clontech), which was prepared by digestion with BamH I—Not I restriction enzymes, to give the TEL/Jak2 fusion plasmid pTELJAK2.
(§2) The growth factor dependent myelomonocytic cell line BaF3 bearing the pTET-off plasmid (Clontech) was transfected with either pTELJAK2 or pTELJAK3, and the transfected cells were selected for growth-factor independent cell growth. The BaF3 wild-type cells were cultured in DMEM containing 10% FCS, 10% WEHI 3B conditioned medium. The BaF3 TELJAK cells ([…]) were cultured in DMEM 10% Tet-System Approved FBS (without WEHI 3B conditioned medium).
(§3) Cell suspensions were prepared by harvesting cells from culture (the cells used in this test were in late log phase growth with high viability.) Cells were diluted in the appropriate growth medium, as described above, to 1.1× final concentration (from 50,000 cell/mL to 200,000 cell/mL, depending on cell line).
(§4) Compounds to be tested were added (10 μL, 10× final concentration) to a flat bottomed 96-well plate. The cellular suspension (90 μL per well) was then added, and the plate incubated for 48-72 hr at 37° C., 5% CO2. Alamar Blue 10 μL per well was added and the plates returned to the incubator for a further 4-6 hours.
(§5) Result are given in table 2 where +++ is <1 μM, ++ is <5 μM and + is <20 μM

BaF3 wild-type cells = experiment: Cellular screening, BaF3 wild-type cells (Alamar Blue); format: cell-based; settings: Mus musculus, 48-72 hr incubation, read-out: BAF3wt_IC50_μM
Protocol: as §1, §2, §3
as §4, with “hours. The plates were then read at 544 nm.” for “hours.”
as §5

CTLL2 = experiment: Cellular screening, CTLL2 cells (Alamar Blue); format: cell-based; settings: Mus musculus, CTLL-2; 48-72 hr incubation; read-out: CTLL2_IC50_μM
Protocol: as §1, §3
as §4, with “hours. The plates were then read at 544 nm.” for “hours.”
as §5

human JAK2 = human JAK2 (Homo sapiens (Human), UniProt O60674); experiment: JAK2 kinase domain Alphascreen enzyme screening; format: biochemical; settings: read-out: JAK2_IC50_nM
Chain of human JAK2 (O60674 849-1124): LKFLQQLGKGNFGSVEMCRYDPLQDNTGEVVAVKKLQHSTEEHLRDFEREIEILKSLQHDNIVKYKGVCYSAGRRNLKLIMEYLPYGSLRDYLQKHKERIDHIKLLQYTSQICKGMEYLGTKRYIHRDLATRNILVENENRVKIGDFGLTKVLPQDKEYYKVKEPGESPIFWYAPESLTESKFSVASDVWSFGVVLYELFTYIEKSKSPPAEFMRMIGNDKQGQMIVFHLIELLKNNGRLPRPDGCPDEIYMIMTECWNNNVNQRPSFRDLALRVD
Protocol: (§6) For screening purposes, compounds (in 100% DMSO) were warmed at 37° C. for at least 20 minutes before use. A […] stock was initially made in assay buffer, where the final concentration of DMSO was 0.3%. The stocks were then diluted in 384 well Optiplates (Packard) where the final concentration of the compound was 5 μM.
The kinase domain of human JAK2 was amplified from U937 mRNA using the polymerase chain reaction with the following primers: […]
The JAK2 PCR products were cloned into the pDest20 destination vector (Gibco). The JAK2 plasmid was then transformed into competent DH10Bac cells (Gibco), and the recombinant baculovirus was prepared via Sf9 insect cell transfection.
(§7) Baculovirus preparations from each of the JAK family members were infected into one litre of […] (Spodoptera frugiperda) cells (Invitrogen) grown in SF900II serum free medium (Invitrogen) to a cell density of approximately 2×10^6 cells/ml. Cells were infected with virus at a cell culture to virus stock ratio of 20:1. Cells were harvested and lysed 48 hours post infection. The GST-tagged JAK kinase domains were purified by affinity chromatography on a GSH agarose column (Scientifix).
Alphascreen phosphotyrosine acceptor beads followed by streptavidin donor beads at a concentration of 1/100 in stop buffer were added to each well under subdued light and incubated for 2-3 hours. The Alphascreen plates were read on a Packard Fusion Alpha instrument

human JAK3 = human JAK3 (Homo sapiens (Human), UniProt P52333); experiment: JAK3 kinase domain Alphascreen enzyme screening; format: biochemical; settings: read-out: JAK3_ IC50_nM
Chain of human JAK3 (P52333 822-1111): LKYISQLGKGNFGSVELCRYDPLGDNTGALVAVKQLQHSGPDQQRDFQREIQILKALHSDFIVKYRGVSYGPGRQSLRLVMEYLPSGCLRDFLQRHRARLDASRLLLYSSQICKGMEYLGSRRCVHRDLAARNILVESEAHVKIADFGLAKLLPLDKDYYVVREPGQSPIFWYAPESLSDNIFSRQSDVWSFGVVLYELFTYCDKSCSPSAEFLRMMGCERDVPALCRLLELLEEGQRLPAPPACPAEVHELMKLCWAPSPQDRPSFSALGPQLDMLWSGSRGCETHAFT
Protocol: as §6
The kinase domain of human JAK3 was amplified from U937 mRNA using the polymerase chain reaction with the following primers: […]
The JAK3 PCR products were cloned into the pDest20 destination expression vector (Gibco). The JAK3 plasmid was then transformed into competent DH10Bac cells (Gibco), and the recombinant baculovirus was prepared via Sf9 insect cell transfection.
as §7
The compounds were then incubated with substrate in the presence of either […] ATP for 60 or 90 minutes. […] (final concentration 111 μM) or substrate-2 substrate with the sequence biotin-[…] [SEQ ID NO: 16] (final concentration 133 μM). Alphascreen phosphotyrosine acceptor beads followed by streptavidin donor beads at a concentration of 1/100 in stop buffer were added to each well under subdued light and incubated for 2-3 hours. The Alphascreen plates were read on a Packard Fusion Alpha instrument

Row | SMILES | IC50 [1] [nM] | IC50 (BaF3 wild-type cells) [nM] | IC50 (CTLL2) [nM] | IC50 (human JAK2) [nM] | IC50 (human JAK3) [nM]
1 | CCOC(=O)c1ccc(-c2ccnc(Nc3ccc(N4CCOCC4)cc3)n2)cc1 [Compound 1, ethyl 4-(2-(4-morpholinophenyl-amino)pyrimidin-4-yl)benzoate] | > 20000 | > 20000 | > 20000 |  | 
2 | N#Cc1cccc(-c2ccnc(Nc3ccc(N4CCOCC4)cc3)n2)c1 [Compound 5, 3-(2-(4-morpholinophenyl-amino)pyrimidin-4-yl)benzonitrile] | > 20000 |  |  | < 500 | 
3 | N#Cc1cc(-c2ccnc(Nc3ccc(N4CCOCC4)cc3)n2)ccc1F [Compound 7, 2-fluoro-5-(2-(4-morpholinophenyl-amino)pyrimidin-4-yl)benzonitrile] |  |  |  | > 1000 | 
4 | COc1cc(Nc2nccc(-c3ccc(F)c(C#N)c3)n2)cc(OC)c1OC [Compound 8, 2-fluoro-5-(2-(3,4,5-trimethoxyphenyl-amino)pyrimidin-4-yl)benzonitrile] |  |  |  | < 500 | 
5 | N#Cc1cc(-c2ccnc(Nc3ccc(N4CCOCC4)cc3)n2)ccc1O [Compound 9, 2-hydroxy-5-(2-(4-morpholinophenyl-amino)pyrimidin-4-yl)benzonitrile] | < 5000 | < 5000 | < 5000 | < 500 | < 500
6 | Cc1cc(-c2ccnc(Nc3ccc(N4CCOCC4)cc3)n2)ccc1C(=O)NCC#N [Compound 11, N-(cyanomethyl)-2-methyl-4-(2-(4-morpholinophenyl-amino)pyrimidin-4-yl)benzamide] |  |  | < 5000 | < 100 | 
7 | COc1cc(-c2ccnc(Nc3ccc(N4CCOCC4)cc3)n2)ccc1C#N [Compound 16, 2-methoxy-4-(2-(4-morpholinophenyl-amino)pyrimidin-4-yl)benzonitrile] | > 20000 | > 20000 | > 20000 | > 1000 | > 1000
8 | O=C(NCc1ccncc1)c1ccc(-c2ccnc(Nc3ccc(N4CCOCC4)cc3)n2)cc1 [Compound 17, 4-(2-(4-morpholinophenyl-amino)pyrimidin-4-yl)-N-(pyridin-4-ylmethyl)benzamide] | < 5000 | < 20000 | > 20000 | < 500 | < 1000
9 | O=C(NCc1cccnc1)c1ccc(-c2ccnc(Nc3ccc(N4CCOCC4)cc3)n2)cc1 [Compound 18, 4-(2-(4-morpholinophenyl-amino)pyrimidin-4-yl)-N-(pyridin-3-ylmethyl)benzamide] | < 5000 | > 20000 | < 20000 | < 500 | < 1000
10 | N#Cc1ccc(-c2ccnc(Nc3ccc(N4CCOCC4)cc3)n2)cc1Cl [Compound 19, 2-chloro-4-(2-(4-morpholinophenyl-amino)pyrimidin-4-yl)benzonitrile] | > 20000 |  |  | > 1000 | > 1000
11 | COc1cc(Nc2nccc(-c3ccc(C(=O)NCC#N)cc3)n2)cc(OC)c1OC [Compound 20, N-(cyanomethyl)-4-(2-(3,4,5-trimethoxyphenyl-amino)pyrimidin-4-yl)benzamide] | < 1000 | < 1000 | < 5000 | < 100 | < 100
12 | O=C(NCC1CCCO1)c1ccc(-c2ccnc(Nc3ccc(N4CCOCC4)cc3)n2)cc1 (centres unmarked) [Compound 21, 4-(2-(4-morpholinophenyl-amino)pyrimidin-4-yl)-N-((tetrahydrofuran-2-yl)methyl)benzamide] | < 20000 | < 20000 | < 20000 | < 500 | < 500
13 | O=C(Nc1cc[nH]n1)c1ccc(-c2ccnc(Nc3ccc(N4CCOCC4)cc3)n2)cc1 [Compound 22, 4-(2-(4-morpholinophenyl-amino)pyrimidin-4-yl)-N-(1H-pyrazol-3-yl)benzamide] | > 20000 |  |  | > 1000 | < 500
14 | CC(C)(C#N)NC(=O)c1ccc(-c2ccnc(Nc3ccc(N4CCOCC4)cc3)n2)cc1 [Compound 23, N-(2-cyanopropan-2-yl)-4-(2-(4-morpholinophenyl-amino)pyrimidin-4-yl)benzamide] |  |  |  | < 1000 | < 500
15 | N#CCNC(=O)c1ccc(-c2ccnc(Nc3ccc(N4CCSCC4)cc3)n2)cc1 [Compound 25, N-(cyanomethyl)-4-(2-(4-thiomorpholino-phenylamino)pyrimidin-4-yl)benzamide] |  |  | < 5000 |  | 
16 | CS(=O)(=O)N(CC#N)c1ccc(-c2ccnc(Nc3ccc(N4CCOCC4)cc3)n2)cc1 [Compound 31, N-(cyanomethyl)-N-(4-(2-(4-morpholinophenyl-amino)pyrimidin-4-yl)phenyl)methane-sulfonamide] | < 5000 | < 5000 | < 5000 | < 100 | < 500
17 | N#CCNC(=O)c1ccc(-c2ccnc(Nc3ccc(N4CCC(O)CC4)cc3)n2)cc1 [Compound 36, N-(cyanomethyl)-4-(2-(4-(4-hydroxypiperidin-1-yl)phenylamino)pyrimidin-4-yl)benzamide] | < 1000 | < 5000 | < 5000 |  | < 100
18 | Cc1cnc(Nc2ccc(N3CCC(CO)CC3)cc2)nc1-c1ccc(C(=O)NCC#N)cc1 [Compound 39, N-(cyanomethyl)-4-(2-(4-(4-(hydroxymethyl)piperidin-1-yl)phenylamino)-5-methylpyrimidin-4-yl)benzamide] | < 1000 | < 5000 | < 5000 |  | < 100
19 | CN1CCN(c2ccc(Nc3nccc(-c4ccc(C(=O)NCC#N)cc4)n3)cc2)CC1 [Compound 44, N-(cyanomethyl)-4-(2-(4-(4-methylpiperazin-1-yl)phenylamino)pyrimidin-4-yl)benzamide] |  | < 5000 | < 5000 |  | < 500
20 | COc1cc(-c2ccnc(Nc3ccc(N4CCOCC4)cc3)n2)ccc1C(=O)NCC#N [Compound 45, N-(cyanomethyl)-2-methoxy-4-(2-(4-morpholinophenyl-amino)pyrimidin-4-yl)benzamide] |  |  | < 1000 | < 100 | < 100
21 | Cc1cnc(Nc2ccc(N3CCCC(O)C3)cc2)nc1-c1ccc(C(=O)NCC#N)cc1 (centres unmarked) [Compound 46] |  | < 5000 | < 1000 |  | 
22 | N#CCC(=O)Nc1ccc(-c2ccnc(Nc3ccc(N4CCOCC4)cc3)n2)cc1 [Compound 85, 2-cyano-N-(4-(2-(4-morpholinophenyl-amino)pyrimidin-4-yl)phenyl)acetamide] |  | < 5000 | < 1000 |  | 
23 | N#CCNC(=O)c1ccc(-c2ccnc(Nc3ccc(CN4CCS(=O)(=O)CC4)cc3)n2)cc1 [Compound 90] |  | < 1000 | < 20000 | < 100 | 
24 | Cc1cnc(Nc2ccc(N3CCOCC3)cc2)nc1-c1ccc(C(=O)NCC#N)cc1 [Compound 92, N-(cyanomethyl)-4-(5-methyl-2-(4-morpholinophenyl-amino)pyrimidin-4-yl)benzamide] |  |  | < 1000 | < 100 | < 100
